The values below come from patent US8153818B2, “Triazolyl phenyl benzenesulfonamides” (ChemoCentryx, Inc., priority 2006, dated 2012).

The IC50 is the concentration at which inhibition is half-maximal.

A value given as a limit tells only on which side of the number the result lay.

The assay concerns the target T1, CCR9 (Homo sapiens, UniProt P51686).
T1 construct: chemokine expressing cells (such as THP-1 cells for CCR2 assay or MOLT-4 cells for CCR9 assay); host or cells: MOLT-4
T1 sequence (P51686 1-369): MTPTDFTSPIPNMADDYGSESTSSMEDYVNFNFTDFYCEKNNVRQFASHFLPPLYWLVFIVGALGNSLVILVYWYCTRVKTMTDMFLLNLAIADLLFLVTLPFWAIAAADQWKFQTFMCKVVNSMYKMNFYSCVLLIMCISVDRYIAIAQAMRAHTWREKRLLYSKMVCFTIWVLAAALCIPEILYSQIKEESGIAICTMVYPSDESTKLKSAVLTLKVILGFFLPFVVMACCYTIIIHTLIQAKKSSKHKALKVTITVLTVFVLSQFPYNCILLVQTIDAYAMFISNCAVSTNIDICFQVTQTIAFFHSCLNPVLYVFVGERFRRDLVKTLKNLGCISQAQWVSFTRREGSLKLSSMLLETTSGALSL
The assay can be described thus: CCR9 activity in one of the chemotaxis, binding or calcium mobilization assays. The format is cell-based. Conditions: assay not specified per compound. The gist of the method: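 Chemotaxis: THP-1 cells (CCR2, 0.1 nM MCP-1, 90 min) or MOLT-4 cells (CCR9, 50 nM TECK, 150 min) preincubated with compound 15 min RT, migration at 37 °C through 5-μm membrane, CyQUANT read; IC50 by nonlinear regression. Calcium flux: Fluo-4-loaded cells, 0.1 nM MCP-1 or 25 nM TECK. Binding: THP-1, ~50 pM [125I]MCP-1, 3 h, 4 °C.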
For orientation: A change in cytosolic calcium serves as a functional read-out for many receptors and channels.
As for `Cc1nnc(-c2cc(Cl)ccc2NS(=O)(=O)c2ccc(C(C)(C)C)cc2)n1C1CC1` [Compound 7, 4-tert-butyl-N-(4-chloro-2-(4-cyclopropyl-5-methyl-4H-1,2,4-triazol-3-yl)phenyl)benzenesulfonamide], the IC50 is less than 1000 nM. As to `Cc1nnc(-c2cc(Cl)ccc2NS(=O)(=O)c2ccc(C(C)(C)C)cc2)n1CC(C)C` [Compound 19, 4-tert-butyl-N-(4-chloro-2-(4-isobutyl-5-methyl-4H-1,2,4-triazol-3-yl)phenyl)benzenesulfonamide], the IC50 is less than 1000 nM. For `CC(C)(C)c1ccc(S(=O)(=O)Nc2cc(F)c(Cl)cc2-c2nncn2[C@H]2CCCNC2)cc1` [Compound 112], the IC50 is less than 1000 nM.

Take `Cc1nnc(-c2cc(Cl)ccc2NS(=O)(=O)c2ccc(C(C)(C)C)cc2)n1C1CCN(C)CC1` [Compound 155]: the IC50 was less than 1000 nM. For `CNCc1nnc(-c2cc(Cl)ccc2NS(=O)(=O)c2ccc(C(C)(C)C)cc2)n1C` [Compound 132, 4-tert-butyl-N-(4-chloro-2-(4-methyl-5-((methylamino)methyl)-4H-1,2,4-triazol-3-yl)phenyl)benzenesulfonamide] the value was less than 1000 nM; for `Cn1c(CO)nnc1-c1cc(Cl)c(F)cc1NS(=O)(=O)c1ccc(C(C)(C)C)cc1` [Compound 123, 4-tert-butyl-N-(4-chloro-5-fluoro-2-(5-(hydroxymethyl)-4-methyl-4H-1,2,4-triazol-3-yl)phenyl)benzenesulfonamide], less than 1000 nM; for `CCn1cnnc1-c1c(NS(=O)(=O)c2ccc(C(C)(C)C)cc2)ccc(Cl)c1F` [Compound 25, 4-tert-butyl-N-(4-chloro-2-(4-ethyl-4H-1,2,4-triazol-3-yl)-3-fluorophenyl)benzenesulfonamide], less than 1000 nM. In the case of `CC(C)NCc1nnc(-c2cc(Cl)c(F)cc2NS(=O)(=O)c2ccc(C(C)(C)C)cc2)n1C` [Compound 49, 4-tert-butyl-N-(4-chloro-5-fluoro-2-(5-((isopropylamino)methyl)-4-methyl-4H-1,2,4-triazol-3-yl)phenyl)benzenesulfonamide], the IC50 was less than 1000 nM. As for `CC(C)n1cnnc1-c1ccc(Cl)cc1NS(=O)(=O)c1ccc(C(C)(C)C)cc1` [Compound 18, 4-tert-butyl-N-(5-chloro-2-(4-isopropyl-4H-1,2,4-triazol-3-yl)phenyl)benzenesulfonamide], the IC50 is less than 1000 nM. Then `CC(C)(C)c1ccc(S(=O)(=O)Nc2ccc(Cl)cc2-c2nncn2C2CNC2)cc1` [Compound 131], with less than 1000 nM; and `CCOC(=O)Cc1nnc(-c2cc(Cl)c(F)cc2NS(=O)(=O)c2ccc(C(C)(C)C)cc2)n1C` [Compound 64, ethyl 2-(5-(2-(4-tert-butylphenylsulfonamido)-5-chloro-4-fluorophenyl)-4-methyl-4H-1,2,4-triazol-3-yl)acetate], with less than 1000 nM.

For the compound `CC(C)n1c(-c2cc(Cl)ccc2NS(=O)(=O)c2ccc(C(C)(C)C)cc2)nnc1C(F)(F)F` [Compound 86, 4-tert-butyl-N-(4-chloro-2-(4-isopropyl-5-(trifluoromethyl)-4H-1,2,4-triazol-3-yl)phenyl)benzenesulfonamide], the IC50 was less than 1000 nM. For `CCc1nnc(-c2cc(C#N)ccc2NS(=O)(=O)c2ccc(C(C)(C)C)cc2)n1C` [Compound 128, 4-tert-butyl-N-(4-cyano-2-(5-ethyl-4-methyl-4H-1,2,4-triazol-3-yl)phenyl)benzenesulfonamide] the value was less than 1000 nM. Consider `CC(C)(C)c1ccc(S(=O)(=O)Nc2ccc(Cl)cc2-c2nncn2[C@@H]2CCNC2)cc1` [Compound 75], for which the IC50 was less than 1000 nM. Consider `Cc1nnc(-c2c(NS(=O)(=O)c3ccc(C(C)(C)C)cc3)ccc(Cl)c2F)n1C` [Compound 28, 4-tert-butyl-N-(4-chloro-2-(4,5-dimethyl-4H-1,2,4-triazol-3-yl)-3-fluorophenyl)benzenesulfonamide], for which the concentration for half-maximal inhibition (IC50) is less than 1000 nM. `CCn1c(-c2cc(Cl)c(F)cc2NS(=O)(=O)c2ccc(C(C)(C)C)cc2)nnc1C(C)C` [Compound 87, 4-tert-butyl-N-(4-chloro-2-(4-ethyl-5-isopropyl-4H-1,2,4-triazol-3-yl)-5-fluorophenyl)benzenesulfonamide]: the IC50 is less than 1000 nM. As for `CC(C)n1c(CN(C)C)nnc1-c1cc(Cl)ccc1NS(=O)(=O)c1ccc(C(C)(C)C)cc1` [Compound 98, 4-tert-butyl-N-(4-chloro-2-(5-((dimethylamino)methyl)-4-isopropyl-4H-1,2,4-triazol-3-yl)phenyl)benzenesulfonamide], the IC50 is less than 1000 nM. Regarding `Cn1cnnc1-c1cc(Cl)c(F)cc1NS(=O)(=O)c1ccc(C(C)(C)C)cc1` [Compound 76, 4-tert-butyl-N-(4-chloro-5-fluoro-2-(4-methyl-4H-1,2,4-triazol-3-yl)phenyl)benzenesulfonamide], the IC50 was less than 1000 nM. `Cn1c(-c2cc(Cl)ccc2NS(=O)(=O)c2ccc(C(C)(C)C)cc2)nnc1C1CCCO1` (centres unmarked) [Compound 102]: the IC50 was less than 1000 nM.

In the case of `COCc1nnc(-c2cc(Cl)c(F)cc2NS(=O)(=O)c2ccc(C(C)(C)C)cc2)n1C1CCOC1` (centres unmarked) [Compound 52, 4-tert-butyl-N-(4-chloro-5-fluoro-2-(5-(methoxymethyl)-4-(tetrahydrofuran-3-yl)-4H-1,2,4-triazol-3-yl)phenyl)benzenesulfonamide], the IC50 was less than 1000 nM.

As for `CCn1cnnc1-c1cc(Cl)ccc1NS(=O)(=O)c1ccc(C(C)(C)C)cc1` [Compound 31, 4-tert-butyl-N-(4-chloro-2-(4-ethyl-4H-1,2,4-triazol-3-yl)phenyl)benzenesulfonamide], the IC50 was less than 1000 nM. For `Cn1c(-c2cc(Cl)c(F)cc2NS(=O)(=O)c2ccc(C(C)(C)C)cc2)nnc1C1CCCOC1` (centres unmarked) [Compound 63] the value was less than 1000 nM.

For `Cc1nnc(-c2cc(Cl)ccc2NS(=O)(=O)c2ccc(C(C)(C)C)cc2)n1-c1cc[nH]n1` [Compound 16], the IC50 was less than 1000 nM. For `Cn1c(CN2CCOCC2)nnc1-c1cc(Cl)ccc1NS(=O)(=O)c1ccc(C(C)(C)C)cc1` [Compound 144] the value was less than 1000 nM; for `Cc1nnc(-c2cc(Cl)ccc2NS(=O)(=O)c2ccc(C(C)(C)C)cc2)n1C1CCNCC1` [Compound 20], less than 1000 nM. Turning to `CC(C)Oc1ccc(S(=O)(=O)Nc2ccc(Cl)cc2-c2nncn2[C@H]2CCNC2)cc1` [Compound 134, (S)—N-(4-chloro-2-(4-(pyrrolidin-3-yl)-4H-1,2,4-triazol-3-yl)phenyl)-4-isopropoxybenzenesulfonamide], the IC50 is less than 1000 nM.

`C[C@H](O)c1nnc(-c2cc(Cl)c(F)cc2NS(=O)(=O)c2ccc(C(C)(C)C)cc2)n1C` [Compound 60]: the IC50 was less than 1000 nM. `Cc1nnc(-c2cc(Cl)c(F)cc2NS(=O)(=O)c2ccc(C(C)(C)C)cc2)n1C` [Compound 36, 4-tert-butyl-N-(4-chloro-2-(4,5-dimethyl-4H-1,2,4-triazol-3-yl)-5-fluorophenyl)benzenesulfonamide]: the IC50 is less than 1000 nM. Turning to `CCc1nnc(-c2cc(Cl)c(F)cc2NS(=O)(=O)c2ccc(C(C)(C)C)cc2)n1C1CCOC1` (centres unmarked) [Compound 47], the IC50 was less than 1000 nM. For `Cc1nnc(-c2cc(Cl)ccc2NS(=O)(=O)c2ccc(C(C)(C)C)cc2)n1CCN` [Compound 83, N-(2-(4-(2-aminoethyl)-5-methyl-4H-1,2,4-triazol-3-yl)-4-chlorophenyl)-4-tert-butylbenzenesulfonamide] the value was less than 1000 nM; for `Cn1c(CCO)nnc1-c1cc(Cl)c(F)cc1NS(=O)(=O)c1ccc(C(C)(C)C)cc1` [Compound 137, 4-tert-butyl-N-(4-chloro-5-fluoro-2-(5-(2-hydroxyethyl)-4-methyl-4H-1,2,4-triazol-3-yl)phenyl)benzenesulfonamide], less than 1000 nM. As to `CCNCc1nnc(-c2cc(Cl)c(F)cc2NS(=O)(=O)c2ccc(C(C)(C)C)cc2)n1C` [Compound 48, 4-tert-butyl-N-(4-chloro-2-(5-((ethylamino)methyl)-4-methyl-4H-1,2,4-triazol-3-yl)-5-fluorophenyl)benzenesulfonamide], the IC50 was less than 1000 nM. Turning to `Cc1nnc(-c2cc(Cl)ccc2NS(=O)(=O)c2ccc(C(C)(C)C)cc2)n1C1CCN(S(C)(=O)=O)CC1` [Compound 93], the IC50 was less than 1000 nM.

Take `Cn1c(-c2cc(Cl)ccc2NS(=O)(=O)c2ccc(C(C)(C)C)cc2)nnc1[C@H]1CCCO1` [Compound 34]: the IC50 is less than 1000 nM. Then `CC(C)(C)c1ccc(S(=O)(=O)Nc2ccc(Cl)cc2-c2nncn2[C@H]2CCNC2)cc1` [Compound 32], with less than 1000 nM; and `CC(C)n1c(-c2cc(Cl)ccc2NS(=O)(=O)c2ccc(C(C)(C)C)cc2)nnc1C1(C)CCOCC1` [Compound 150], with less than 1000 nM. Then `CC(C)c1nnc(-c2cc(Cl)ccc2NS(=O)(=O)c2ccc(C(C)(C)C)cc2)n1[C@H]1CCNC1` [Compound 118, (S)-4-tert-butyl-N-(4-chloro-2-(5-isopropyl-4-(pyrrolidin-3-yl)-4H-1,2,4-triazol-3-yl)phenyl)benzenesulfonamide], with less than 1000 nM; and `CC(C)NCc1nnc(-c2cc(Cl)ccc2NS(=O)(=O)c2ccc(C(C)(C)C)cc2)n1C` [Compound 138, 4-tert-butyl-N-(4-chloro-2-(5-((isopropylamino)methyl)-4-methyl-4H-1,2,4-triazol-3-yl)phenyl)benzenesulfonamide], with less than 1000 nM.
